Data as given in the Bradley open melting point set (2014).
“And” between values parts separate entries of the source, which are not always exact repeats. Equal entries are not always repeated.

| melting point | SMILES |
| --- | --- |
| 206 °C | CC1C(=O)CCCC1=O [2-methylcyclohexane-1,3-dione] |
| -80 °C | CCCCCCC(C)C [2-methyloctane] |
| -4 °C | CC1CCCCN1 (stereo not drawn) [2-methylpiperidine] |
| 10 °C | CCCCCCCCC(CCCCCC)C(=O)O (stereo not drawn) [2-n-hexyldecanoic acid] |
| 184 °C | O=C(O)c1ccc2ccccc2c1 [2-naphthoic acid] |
| 123 °C and 122 °C | Oc1ccc2ccccc2c1 [2-naphthol] [listing 1 of 2 here] |
| 122 °C | Oc1ccc2ccccc2c1 [2-naphthol] [listing 2 of 2 here] |
| 83 °C | N#CCc1ccc2ccccc2c1 [2-naphthylacetonitrile] |
| 100 °C | O=[N+]([O-])c1ccccc1C=NO [2-nitrobenzaldoxime] |
| 176 °C | NC(=O)c1ccccc1[N+](=O)[O-] [2-nitrobenzamide] |
| 109 °C | N#Cc1ccccc1[N+](=O)[O-] [2-nitrobenzonitrile] |
| 83 °C | N#CCc1ccccc1[N+](=O)[O-] [2-nitrophenylacetonitrile] |
| 83 °C | O=[N+]([O-])c1c(O)cccc1O [2-nitroresorcinol] |
| -15 °C | CCCCCCCC(C)=O [2-nonanone] [listing 1 of 2 here] |
| -8 °C | CCCCCCCC(C)=O [2-nonanone] [listing 2 of 2 here] |
| 47 °C | Nc1ccccc1Oc1ccccc1 [2-phenoxyaniline] |
| 33 °C | BrCCOc1ccccc1 [2-phenoxyethyl bromide] |
| -23 °C | C=C(C)c1ccccc1 [2-phenyl-1-propene] |
| 34 °C | CC(C)(O)c1ccccc1 [2-phenyl-2-propanol] |
| 49 °C | C#CC(C)(O)c1ccccc1 (stereo not drawn) [2-phenyl-3-butyn-2-ol] |
| 297 °C | c1ccc(-c2nc3ccccc3[nH]2)cc1 [2-phenylbenzimidazole] |

| melting point | SMILES |
| --- | --- |
| 48 °C | Cc1cccc[n+]1[O-] [2-picoline n-oxide] |
| 84 °C | C=CCc1ccccc1C(=O)O [2-prop-2-en-1-ylbenzoic acid] |
| -131 °C | CC(C)S [2-propanethiol] |
| 130 °C | CC(=O)OC1=c2ccccc2=NC1c1ccccn1 (stereo not drawn) [2-pyridin-2-yl-1H-indol-3-yl acetate] |
| 120 °C | O=C1OS(=O)(=O)c2ccccc21 [2-sulfobenzoic anhydride] |
| 2 °C | CCCCCCCCCC(C)O (stereo not drawn) [2-undecanol] |
| 166 °C | CN(C)c1ccc(CNC2=CC(=O)c3ccccc3C2=O)cc1 [2-{[4-(dimethylamino)benzyl]amino}naphthalene-1,4-dione] |
| 135 °C | Cc1ccc(CNC2=CC(=O)c3ccccc3C2=O)nc1 [2-{[(5-methylpyridin-2-yl)methyl]amino}naphthalene-1,4-dione] |
| 135 °C | O=C1C=C(NCNc2ccccn2)C(=O)c2ccccc21 [2-{[(pyridin-2-ylamino)methyl]amino}naphthalene-1,4-dione] |
| 83 °C | Cc1cc(C)n(CN(CCO)Cn2nc(C)cc2C)n1 [2-{bis[(3,5-dimethyl-1H-pyrazol-1-yl)methyl]amino}ethanol] |
| 206 °C | O=C1COc2cccnc2N1 [2h-pyrido[3,2-b]-1,4-oxazin-3(4h)-one] |
| 251 °C | O=c1cc(-c2ccc(O)c(O)c2)oc2ccccc12 [3',4'-dihydroxyflavone] |
| 107 °C | CC(=O)c1cc(F)cc(F)c1O [3',5'-difluoro-2'-hydroxyacetophenone] |
| 144 °C | CC(=O)c1cc(O)cc(O)c1 [3',5'-dihydroxyacetophenone] |
| 20 °C | CC(=O)c1cc(C)cc(C)c1 [3',5'-dimethylacetophenone] |
| 230 °C | COc1ccc([C@@H]2CC(=O)c3c(O)cc(O)cc3O2)cc1O [3',5,7-trihydroxy-4'-methoxyflavanone] |
| 205 °C | Cc1ccc2oc(-c3cccc(O)c3)cc(=O)c2c1 [3'-hydroxy-6-methylflavone] |
| 95 °C | CC(=O)c1cccc(O)c1 [3'-hydroxyacetophenone] |
| 140 °C | O=C1CC(c2cccc(O)c2)Oc2ccccc21 (stereo not drawn) [3'-hydroxyflavanone] |
| 314 °C | O=C(O)c1ccc(-c2cccc([N+](=O)[O-])c2)cc1 [3'-nitrobiphenyl-4-carboxylic acid] |
| 48 °C | Cc1cc(C)cc(-c2cc(C)cc(C)c2)c1 [3,3',5,5'-tetramethylbiphenyl] |

| melting point | SMILES |
| --- | --- |
| 147 °C | COC1(OC)CCC2(C)C3CCC4(C)CCCC4(O)C3CCC2(C)C1 (stereo not drawn) [3,3-dimethoxy-5-methylandrostan-14-ol] |
| 80 °C | COC1(OC)CCC2(C)C(CCC3C4CCCC4(C)CCC32)C1 (stereo not drawn) [3,3-dimethoxyandrostane] |
| 139 °C | O=C1CCC2CCc3ccccc3C2O1 (stereo not drawn) [3,4,4a,5,6,10b-hexahydro-2H-benzo[h]chromen-2-one] |
| 186 °C | Brc1n[nH]c(Br)c1Br [3,4,5-tribromo-1h-pyrazole] |
| 277 °C | OB(O)c1cc(F)c(F)c(F)c1 [3,4,5-trifluorobenzeneboronic acid] |
| 5 °C | Brc1cscc1Br [3,4-dibromothiophene] |
| 272 °C | OB(O)c1ccc(Cl)c(Cl)c1 [3,4-dichlorobenzeneboronic acid] |
| 208 °C | O=C(O)c1ccc(Cl)c(Cl)c1 [3,4-dichlorobenzoic_acid] |
| -12 °C | FC(F)(F)c1ccc(Cl)c(Cl)c1 [3,4-dichlorobenzotrifluoride] |
| -15 °C | Cc1ccc(Cl)c(Cl)c1 [3,4-dichlorotoluene] |
| 123 °C | O=C(O)c1ccc(F)c(F)c1 [3,4-difluorobenzoic acid] |
| 148 °C | O=C(O)c1ccc2c(c1)OCCCO2 [3,4-dihydro-2h-1,5-benzodioxepin-7-carboxylic acid] |
| 155 °C | O=Cc1ccc(O)c(O)c1 [3,4-dihydroxybenzaldehyde] |
| 55 °C | COc1c(OC)c(=O)c1=O [3,4-dimethoxy-3-cyclobutene-1,2-dione] |
| 89 °C | COc1ccc(/C=C/C(=O)c2ccccc2)cc1OC [3,4-dimethoxychalcone] |
| 83 °C | COc1ccc(O)cc1OC [3,4-dimethoxyphenol] |
| 64 °C | COc1ccc(CC#N)cc1OC [3,4-dimethoxyphenylacetonitrile] |
| 27 °C | COc1ccc(C)cc1OC [3,4-dimethoxytoluene] |
| 66 °C | Cc1ccc(C#N)cc1C [3,4-dimethylbenzonitrile] |
| 30 °C | Cc1ccc(S)c(S)c1 [3,4-toluenedithiol] |
| 114 °C | CC(C)(C)C1=CC(=O)C(=O)C(C(C)(C)C)=C1 [3,5-Di-tert-butyl-1,2-benzoquinone] |

| melting point | SMILES |
| --- | --- |
| 228 °C | CC(C)(C)c1cc(C(=S)NC2CCCCC2)cc(C(C)(C)C)c1O [3,5-Di-tert-butyl-N-cyclohexyl-4-hydroxy-thiobenzamide] |
| 222 °C | OB(O)c1cc(C(F)(F)F)cc(C(F)(F)F)c1 [3,5-bis(trifluoromethyl)benzeneboronic acid] |
| 142 °C | CC(C)(C)c1cc(C#N)cc(C(C)(C)C)c1O [3,5-di-tert-butyl-4-hydroxybenzonitrile] |
| 115 °C | CC(C)(C)C1=CC(=O)C(=O)C(C(C)(C)C)=C1 [3,5-di-tert-butyl-o-benzoquinone] |
| 41 °C | COc1cc(Cl)cc(Cl)c1 [3,5-dichloroanisole] |
| 160 °C | NC(=O)c1cc(Cl)cc(Cl)c1 [3,5-dichlorobenzamide] |
| 156 °C | NC(=O)c1cc(F)cc(F)c1 [3,5-difluorobenzamide] |
| 189 °C | O=C(O)c1cc(F)cc(F)c1O [3,5-difluorosalicylic acid] |
| 47 °C | COc1cc(C=O)cc(OC)c1 [3,5-dimethoxybenzaldehyde] |
| 9 °C | Cc1cc(C)cc(C=O)c1 [3,5-dimethylbenzaldehyde] |
| 147 °C | CN1C(=O)c2ccccc2C1C=C(c1ccccc1)c1ccccc1 (stereo not drawn) [3-(2,2-Diphenylethenyl)-2-methylisoindolin-1-one] |
| 44 °C | C#CCOc1c(Cl)cccc1Cl [3-(2,6-dichlorophenoxy)-1-propyne] |
| 218 °C | O=C(O)/C=C/c1cccc(B(O)O)c1 [3-(2-carboxyvinyl)benzeneboronic acid] |
| 142 °C | O=C(O)/C=C/c1ccco1 [3-(2-furyl)acrylic acid] |
| 81 °C | COc1ccccc1OCC(O)CO (stereo not drawn) [3-(2-methoxyphenoxy)-1,2-propanediol] |
| 105 °C | O=C(O)CCSc1ccc2ccccc2c1 [3-(2-naphthylthio)propionic acid] |
| 95.5 °C | CN1C(=O)c2ccccc2C1C1=COCCC1 (stereo not drawn) [3-(3,4-Dihydro-2H-pyran-5-yl)-2-methylisoindolin-1-one] |
| 64 °C | O=C(O)CCc1cccc(Br)c1 [3-(3-bromophenyl)propionic acid] |
| 130 °C | Oc1cccc(N2CCOCC2)c1 [3-(4-morpholinyl)phenol] |
| 137 °C | CCOC(=O)c1cccc(B(O)O)c1 [3-(ethoxycarbonyl)benzeneboronic acid] |
| 116 °C | O=S(=O)(c1ccccc1)c1ccsc1 [3-(phenylsulfonyl)thiophene] |

| SMILES | melting point |
| --- | --- |
| Cc1cccc(C)c1[N+](=O)[O-] [2-nitro-1,3-dimethylbenzene] | 16 °C |
| Cc1ccccc1[N+](=O)[O-] [2-nitrotoluene] | -4 °C |
| OCCOc1ccccc1 [2-phenoxyethanol] | 12 °C |
| NCCc1ccccc1 [2-phenylethylamine] | -60 °C |
| O=[N+]([O-])c1ccc(Cl)c(Cl)c1 [3,4-Dichloronitrobenzene] | 41.3 °C |
| COc1ccc(C(=O)O)cc1OC [3,4-Dimethoxybenzoic acid] | 181 °C |
| O=C(Cl)c1cc([N+](=O)[O-])cc([N+](=O)[O-])c1 [3,5-dinitrobenzoyl chloride] | 67 °C |
| CC(=O)OC1CCC2C3CCC4CC(=C(C)C)CCC4(C)C3CCC12C (stereo not drawn) [3-(1-methylethylidene)androstan-17-yl acetate] | 108 °C |
| OB(O)c1cccc(CBr)c1 [3-(bromomethyl)benzeneboronic acid] | 215 °C |
